According to paper PMC6882465, “Towards discovery of new leishmanicidal scaffolds able to inhibit Leishmania GSK-3” (Journal of Enzyme Inhibition and Medicinal Chemistry, 2019):
Like-named read-outs stand apart in the source and are kept apart here. One block for each compound: values may come before it.

Experiments:
[1] = test system: peritoneal murine macrophages (PMM); experiment: Cytotoxicity on peritoneal murine macrophages (MTT); format: cell-based, Balb/c mice; settings: Table S1; 48 h
Protocol: Peritoneal murine macrophages were obtained from 8-week-old Balb/c mice previously elicited by i.p. injection with 1 mL of 10% thioglycollate medium three days prior to extraction. Macrophages were obtained by peritoneal washing (10 mL PBS, 4 °C). After extraction, macrophages were maintained in RPMI 1640-HIFCS at 37 °C and 5% CO2.
For peritoneal macrophages, the cells were seeded in 96 microwell plates at 1 × 10^5 cells/well and incubated (37 °C, 5% CO2) with the drug for 48 h. The toxicity was evaluated by the inhibition of MTT reduction as above.

[2] = test system: L. pifanoi axenic amastigotes; experiment: Leishmanicidal assay on axenic amastigotes (inhibition of MTT reduction); format: cell-based, Leishmania pifanoi; settings: Table S1; 96 h; read-out: L. pifanoi amast. ax EC50
Protocol: (§1) Leishmania parasites were resuspended with the corresponding drug concentration at 2 × 10^6 parasites/mL (final concentration) in their respective growth media in 96 microwell plates (200 µL/well). The parasites were allowed to growth for 72 h at 26 °C for promastigotes and 96 h at 32 °C for axenic amastigotes. Afterwards, inhibition of proliferation was measured by the inhibition of MTT reduction by the parasites. […] MTT reduction was allowed to proceed for 2 h at the respective temperature, and the resulting formazan solubilised by addition of 50 µL/well of 10% SDS. Afterwards, the plate was read at 595 nm in a BioRad Microplate-reader, model 680. Samples were made by triplicate and assays were repeated at least twice.

[3] = test system: L. infantum promastigotes; experiment: Leishmanicidal assay on promastigotes (inhibition of MTT reduction); format: cell-based, Leishmania infantum; settings: Table S1; 72 h
Protocol: as §1

[4] = biological target: T1, hGSK-3β (Homo sapiens, UniProt P49841); settings: Table S1, cited from earlier work
[5] = biological target: T2, LdGSK-3 (Leishmania donovani, UniProt A6N857); experiment: Inhibition of LdGSK-3 with Kinase Glo; format: biochemical; settings: Table S1; for IC50: read-out: LdGSK-3 IC50; for LdGSK-3 % inhibition: @10 µM
Protocol: Assessment of inhibition of LdGSK-3 with Kinase Glo^TM
The reaction was allowed to proceed for 30 min at 30 °C, then it was incubated at room temperature for another 10 min after addition of Kinase Glo reagents (Promega, Ref. V6712). ATP consumption by LdGSK-3 was measured indirectly through end-point luminescence measurement of each well in a Varioskan Flash microplate reader (Thermo).

[6] = biological target: T2, LdGSK-3; parameters: method as in PMID 19445946; settings: cited from earlier work
[7] = biological target: T1, hGSK-3β; experiment: hGSK-3β inhibition; format: biochemical; settings: Table S1; reference not given

T2 sequence (A6N857 entry or part of it): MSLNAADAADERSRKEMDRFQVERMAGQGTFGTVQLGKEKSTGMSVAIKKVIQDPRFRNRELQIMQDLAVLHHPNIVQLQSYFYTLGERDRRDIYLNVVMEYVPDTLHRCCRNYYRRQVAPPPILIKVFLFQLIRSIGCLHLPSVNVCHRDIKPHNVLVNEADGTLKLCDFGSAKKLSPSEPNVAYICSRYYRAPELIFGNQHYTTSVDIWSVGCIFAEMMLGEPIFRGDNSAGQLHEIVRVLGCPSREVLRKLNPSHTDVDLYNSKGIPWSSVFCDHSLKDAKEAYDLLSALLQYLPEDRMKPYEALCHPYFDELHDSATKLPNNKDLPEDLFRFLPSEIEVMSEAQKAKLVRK
T1 sequence (P49841 whole entry): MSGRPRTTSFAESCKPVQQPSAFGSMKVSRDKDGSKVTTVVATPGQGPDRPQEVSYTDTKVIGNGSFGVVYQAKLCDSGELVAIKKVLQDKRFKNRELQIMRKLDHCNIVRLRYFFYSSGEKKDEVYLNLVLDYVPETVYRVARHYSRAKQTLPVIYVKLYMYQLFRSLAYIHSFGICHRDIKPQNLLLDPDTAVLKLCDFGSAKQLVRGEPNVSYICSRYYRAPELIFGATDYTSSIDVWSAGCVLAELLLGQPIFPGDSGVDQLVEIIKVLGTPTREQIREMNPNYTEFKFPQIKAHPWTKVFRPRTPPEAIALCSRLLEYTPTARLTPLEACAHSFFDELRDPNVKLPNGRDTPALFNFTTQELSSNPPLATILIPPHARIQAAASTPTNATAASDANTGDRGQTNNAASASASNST

SMILES: O=C(CCl)c1cc(Cl)sc1Cl [Compound 8]
EC50 [1]: 3.6 ± 0.5 µM | EC50 [2]: 2.4 ± 0.4 µM | EC50 [3]: 4.4 ± 0.1 µM | IC50 ([4]; ref 4 (supplement)): 5 µM | IC50 [5]: 10.3 ± 2 µM

SMILES: O=C(CCl)c1ccc(Br)s1 [Compound 6]
EC50 [1]: 6.8 ± 0.4 µM | EC50 [2]: 1.7 ± 0.1 µM | EC50 [3]: 0.9 ± 0.1 µM | IC50 ([4]; ref 4 (supplement)): 10 µM | IC50 [5]: 12.5 ± 2.4 µM

SMILES: Cc1cc2c(cc1Br)NC(=O)C2=C1Nc2ccccc2C1=NO [6-bromo-5-methylindirubin-3'-oxime]
LdGSK-3 inhibition (in words) [6]: inhibited

SMILES: CCCCCCCC(=O)NNC(=O)c1c(O)c2ccccc2n(C)c1=O [Compound 12]
EC50 [2]: 20.8 µM | EC50 [3]: > 50 µM | IC50 ([4]; ref 7 (supplement)): 8.7 ± 0.4 µM | LdGSK-3 % inhibition [5]: < 20%

SMILES: O=C(CBr)C1=C(c2c[nH]c3ccccc23)C(=O)NC1=O [Compound 15]
EC50 [2]: > 50 µM | EC50 [3]: > 50 µM | IC50 ([4]; ref 8 (supplement)): 0.047 ± 0.007 µM | IC50 [5]: 17.7 ± 2.7 µM

SMILES: CC(=O)C1=C(c2c[nH]c3ccccc23)C(=O)NC1=O [Compound 16]
EC50 [1]: > 50 µM | EC50 [2]: 2.5 ± 2.7 µM | EC50 [3]: > 50 µM | IC50 ([4]; ref 8 (supplement)): 4.47 ± 0.35 µM | LdGSK-3 % inhibition [5]: < 20%

Second part, led by results:

LdGSK-3 % inhibition [5]: 35.5%
SMILES: COc1ccc(-n2cnc3cc(C(=O)CBr)ccc32)cc1 [Compound 17]
EC50 [1]: > 25 µM | EC50 [2]: 4.5 ± 0.2 µM | EC50 [3]: 3.4 ± 0.5 µM | IC50 ([4]; ref 8 (supplement)): 0.58 ± 0.07 µM

IC50 [7]: 9.72 ± 0.57 µM | LdGSK-3 % inhibition [5]: < 20%
SMILES: COc1ccc(CNC(=O)Nc2nc(C)c(C(=O)CBr)s2)cc1 [Compound 19]
EC50 [1]: 32 ± 3.1 µM | EC50 [2]: 14.4 ± 2.6 µM | EC50 [3]: > 25 µM
